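Interpolation was linear, between the two tested concentrations surrounding the appropriate level; five concentrations were tested over 48 hours in 96-well plates. TGI: concentration producing complete growth inhibition.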
Columns and labels:
Assay in all cases: inhibition of tumour cell growth, NCI panel, 48 h
[1] = tested on: IGROV1 ovarian
[2] = tested on: M19-MEL melanoma
[3] = tested on: SF-295 CNS
[4] = tested on: SNB-19 CNS
[5] = tested on: ACHN renal
[6] = tested on: HCC-2998 colon
[7] = tested on: SK-MEL-2 melanoma
[8] = tested on: HCT-15 colon
[9] = tested on: HOP-92 NSCLC
[10] = tested on: OVCAR-4 ovarian
[11] = tested on: OVCAR-8 ovarian
[12] = tested on: SF-539 CNS
[13] = tested on: SNB-75 CNS
[14] = tested on: SN12C renal
[15] = tested on: SW-620 colon
[16] = tested on: SK-MEL-28 melanoma
[17] = tested on: UO-31 renal
[18] = tested on: LXFL 529 NSCLC
[19] = tested on: SNB-78 CNS
[20] = tested on: SR leukemia
[21] = tested on: DLD-1 colon
[22] = tested on: SK-MEL-5 melanoma
[23] = tested on: TK-10 renal
[24] = tested on: SK-OV-3 ovarian
[25] = tested on: COLO 205 colon
[26] = tested on: RXF 393 renal
[27] = tested on: M14 melanoma
[28] = tested on: NCI-H23 lung
[29] = tested on: LOX IMVI melanoma
[30] = tested on: SF-268 CNS
[31] = tested on: DMS 114 small cell lung
[32] = tested on: RPMI-8226 leukemia
[33] = tested on: K-562 leukemia
[34] = tested on: EKVX NSCLC
[35] = tested on: NCI-H226 lung
[36] = tested on: XF 498 CNS
[37] = tested on: NCI-H460 lung
[38] = tested on: U251 CNS
[39] = tested on: CCRF-CEM leukemia
[40] = tested on: UACC-257 melanoma
[41] = tested on: MOLT-4 leukemia
[42] = tested on: HOP-18 NSCLC
[43] = tested on: MALME-3M melanoma
[44] = tested on: CAKI-1 renal
[45] = tested on: KM12 colon
[46] = tested on: HCT-116 colon
[47] = tested on: A549 NSCLC
[48] = tested on: DMS 273 small cell lung
[49] = tested on: HL-60(TB) leukemia
[50] = tested on: A498 renal
[51] = tested on: OVCAR-3 ovarian
[52] = tested on: KM20L2 colon
[53] = tested on: UACC-62 melanoma
[54] = tested on: NCI-H522 lung
[55] = tested on: 786-0 renal
[56] = tested on: HT29 colon
[57] = tested on: OVCAR-5 ovarian

Measured: TGI

Cn1c(=O)c(C#N)c(O)c2cc3ccccc3nc21
not listed: [50] | [51] | [52] | [53] | [54] | [55] | [56] | [57]
> 100 µM: all other assays above

COC(=O)C1=C(C)N(NC(=O)Nc2ccccc2)C2(N)N(NC(=O)Nc3ccccc3)C(C)=C(C(=O)OC)C12C(=O)OC (configuration not stated)
55.5 µM: [1]
84.6 µM: [19]
71.3 µM: [41]
82.9 µM: [44]
78.5 µM: [32]
78.7 µM: [2]
not listed: [3] | [4] | [12] | [20] | [22] | [34] | [36] | [45] | [49]
> 100 µM: all other assays above
